Assay results reported in patent publication US7081472B2, “Substituted bis-indole derivatives useful as contrast agents, pharmaceutical compositions containing them and intermediates for producing them” (K. U. Leuven Research & Development, priority 2000, dated 2006).

Legend:
[1] = MR angiography after intravenous injection in a rabbit; format: in vivo; conditions: i.v. 0.1 mmole per kg
From the text: For the purpose of a comparison with a known contrast agent, MR angiographic images of a rabbit were taken (shown in FIG. 5) after intravenous injection of: • a commercial MRI contrast agent (Gd-DTPA commercially available under the tradename Magnevisto® from Schering A G, Berlin, Germany) at a concentration of 0.1 mmole per kg bodyweight (A-C), and • the complex of example 8 at a concentration of 0.05 mmole per kg bodyweight (A′-C′).

[2] = 0.25 mmolar solution, yellow-orange color; cited from earlier work
[3] = animals, 1 mmole of the gadolinium complex per kg body weight; cited from earlier work

Compound	contrast enhancement of abdominal aorta, first pass ([1]; immediately after injection)	contrast enhancement of abdominal aorta ([1]; one minute after contrast)	absorbance at 400 nm [2]	side effects after intravenous bolus injection [3]
O=C([O-])CN(CCN(CC(=O)[O-])CC(=O)O)CCN(CC(=O)[O-])CC(=O)O.[Gd+3] [Gd-DTPA]	moderately enhanced	faintly enhanced		
gadolinium complex of the bis-diethylenetriaminepentaacetic acid pamoic acid derivative obtained from 3-hydroxy-2-naphtalene methyl carboxylate			0.75	significant side effects (e.g. myocarditis)
